# From PubChem BioAssay (NCI)
# Values joined by “and” are separate entries in the source; they are usually repeats but may differ in a detail not shown here. Equal entries are not always repeated.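 Five concentrations, 48 hours, 96-well plates. Here, GI50 denotes the concentration required for 50% inhibition of growth. TGI is the concentration that stops growth completely.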
# Tests used:
# Test in all cases: NCI anticancer screen, dose series, 48 h
# [1] = system: A498 renal
# [2] = system: UO-31 renal
# [3] = system: NCI-H226 lung
# [4] = system: OVCAR-5 ovarian
# [5] = system: HL-60(TB) leukemia
# [6] = system: RXF 393 renal
# [7] = system: CAKI-1 renal
# [8] = system: ACHN renal
# [9] = system: MDA-MB-231 breast
# [10] = system: SF-295 CNS
# [11] = system: NCI/ADR-RES ovarian
# [12] = system: EKVX NSCLC
# [13] = system: CCRF-CEM leukemia
# [14] = system: SNB-19 CNS
# [15] = system: LOX IMVI melanoma
# [16] = system: HOP-62 NSCLC
# [17] = system: KM12 colon
# [18] = system: SK-MEL-5 melanoma
# [19] = system: COLO 205 colon
# [20] = system: OVCAR-3 ovarian
# [21] = system: HT29 colon
# [22] = system: SR leukemia
# [23] = system: UACC-257 melanoma
# [24] = system: SF-539 CNS
# [25] = system: SF-268 CNS
# [26] = system: SNB-75 CNS
# [27] = system: HOP-92 NSCLC
# [28] = system: HCT-15 colon
# [29] = system: DU-145 prostate
# [30] = system: PC-3 prostate
# [31] = system: RPMI-8226 leukemia
# [32] = system: MDA-MB-435
# [33] = system: MCF7 breast
# [34] = system: M14 melanoma
# [35] = system: NCI-H23 lung
# [36] = system: A549 NSCLC
# [37] = system: HS 578T breast
# [38] = system: SN12C renal
# [39] = system: 786-0 renal
# [40] = system: NCI-H460 lung
# [41] = system: T-47D breast
# [42] = system: SK-OV-3 ovarian
# [43] = system: SK-MEL-2 melanoma
# [44] = system: U251 CNS
# [45] = system: IGROV1 ovarian
# [46] = system: BT-549 breast
# [47] = system: NCI-H522 lung
# [48] = system: OVCAR-4 ovarian
# [49] = system: TK-10 renal
# [50] = system: K-562 leukemia
# [51] = system: HCC-2998 colon
# [52] = system: HCT-116 colon
# [53] = system: MALME-3M melanoma
# [54] = system: UACC-62 melanoma
# [55] = system: SW-620 colon
# [56] = system: MOLT-4 leukemia
# [57] = system: OVCAR-8 ovarian
# [58] = system: SK-MEL-28 melanoma
structure (smiles),measurement,setting,value
CN(C)c1ccc2nc3ccc(=[N+](C)C)cc-3sc2c1,GI50,[1],4.12 µM and 6.21 µM
same,TGI,[1],22 µM and 55.8 µM
same,GI50,[2],3.65 µM and 6.28 µM
same,TGI,[2],19.8 µM and 29.1 µM
same,GI50,[3],1.82 µM and 12.7 µM
same,TGI,[3],16.6 µM and 36.6 µM
same,GI50,[4],0.599 µM and 0.642 µM
same,TGI,[4],11.3 µM and 17.3 µM
same,GI50,[5],0.0938 µM and 0.187 µM
same,TGI,[5],2.28 µM and 1.35 µM
same,GI50,[6],2.73 µM and 10.1 µM
same,TGI,[6],18 µM and 27.9 µM
same,GI50,[7],2.17 µM and 1.96 µM
same,TGI,[7],19.4 µM and 8.5 µM
same,GI50,[8],2.65 µM and 3.04 µM
same,TGI,[8],15.3 µM and 24.1 µM
same,GI50,[9],0.512 µM and 1.36 µM
same,TGI,[9],12.9 µM and 16.9 µM
same,GI50,[10],0.329 µM and 0.934 µM
same,TGI,[10],10.3 µM and 10.2 µM
same,GI50,[11],0.408 µM and 0.563 µM
same,TGI,[11],23.1 µM and 14.2 µM
same,GI50,[12],4.24 µM and 0.804 µM
same,TGI,[12],28.3 µM and 29.4 µM
same,GI50,[13],0.394 µM and 0.685 µM
same,GI50,[14],0.908 µM and 0.543 µM
same,TGI,[14],16.3 µM and 46.1 µM
same,GI50,[15],0.404 µM and 0.65 µM
same,TGI,[15],7.61 µM and 10.4 µM
same,GI50,[16],2.47 µM and 4.89 µM
same,TGI,[16],15.9 µM and 21.9 µM
same,GI50,[17],0.724 µM and 0.696 µM
same,TGI,[17],19.6 µM and 15.7 µM
same,GI50,[18],0.146 µM and 0.39 µM
same,TGI,[18],0.412 µM and 1.98 µM
same,GI50,[19],0.497 µM and 0.47 µM
same,TGI,[19],1.96 µM and 5.3 µM
same,GI50,[20],0.307 µM and 0.3 µM
same,TGI,[20],1.66 µM
same,GI50,[21],3.41 µM and 4.14 µM
same,TGI,[21],11.2 µM and 20.8 µM
same,GI50,[22],1.03 µM and 1.45 µM
same,TGI,[22],57.7 µM and 46.2 µM
same,GI50,[23],0.219 µM and 0.411 µM
same,TGI,[23],0.711 µM and 2.36 µM
same,GI50,[24],0.139 µM and 0.379 µM
same,TGI,[24],9.82 µM and 14.7 µM
same,GI50,[25],0.446 µM and 1.08 µM
same,TGI,[25],15.4 µM and 15.1 µM
same,GI50,[26],1.79 µM and 2.92 µM
same,TGI,[26],10.1 µM and 17.3 µM
same,GI50,[27],2.59 µM and 1.74 µM
same,TGI,[27],24.8 µM and 11.1 µM
same,GI50,[28],0.446 µM and 0.795 µM
same,TGI,[28],18.2 µM and > 100 µM
same,GI50,[29],3.4 µM and 3.86 µM
same,TGI,[29],16 µM and 14.8 µM
same,GI50,[30],0.161 µM and 0.288 µM
same,TGI,[30],2.71 µM and 16.2 µM
same,GI50,[31],0.214 µM and 1.23 µM
same,TGI,[31],26 µM and 39.6 µM
same,GI50,[32],0.976 µM and 1.46 µM
same,TGI,[32],3.26 µM and 4.02 µM
same,GI50,[33],0.304 µM and 0.324 µM
same,TGI,[33],12.2 µM and 14.5 µM
same,GI50,[34],0.337 µM and 0.407 µM
same,TGI,[34],1.49 µM and 3.4 µM
same,GI50,[35],0.322 µM and 0.597 µM
same,TGI,[35],4.99 µM and 12.7 µM
same,GI50,[36],0.236 µM and 0.321 µM
same,TGI,[36],3.3 µM and 12 µM
same,GI50,[37],3.08 µM and 3.62 µM
same,TGI,[37],> 28.2 µM and 35.6 µM
same,GI50,[38],0.71 µM and 1.38 µM
same,TGI,[38],7.05 µM and 12.6 µM
same,GI50,[39],2.68 µM and 2.92 µM
same,TGI,[39],17.6 µM and 27.1 µM
same,GI50,[40],0.431 µM and 1.03 µM
same,TGI,[40],14.9 µM and > 37.5 µM
same,GI50,[41],0.36 µM and 0.558 µM
same,TGI,[41],3.5 µM and 12.7 µM
same,GI50,[42],2.63 µM and 5.11 µM
same,TGI,[42],12.6 µM and 25.9 µM
same,GI50,[43],1.44 µM and 0.544 µM
same,TGI,[43],3.68 µM and 13.6 µM
same,GI50,[44],0.248 µM and 0.341 µM
same,TGI,[44],2.23 µM and 11.2 µM
same,GI50,[45],1.18 µM and 2.03 µM
same,TGI,[45],11.5 µM and 6.47 µM
same,GI50,[46],9.74 µM and 3.26 µM
same,TGI,[46],24.2 µM and 22.7 µM
same,GI50,[47],0.232 µM and 0.449 µM
same,TGI,[47],0.906 µM and 4.5 µM
same,GI50,[48],0.192 µM and 0.295 µM
same,TGI,[48],1.25 µM and 3.79 µM
same,GI50,[49],3.98 µM and 1.42 µM
same,TGI,[49],16.1 µM and 17.2 µM
same,GI50,[50],0.469 µM and 0.509 µM
same,TGI,[50],18.7 µM and 48.5 µM
same,GI50,[51],0.745 µM and 6.32 µM
same,TGI,[51],17.8 µM and 36 µM
same,GI50,[52],0.29 µM and 0.373 µM
same,TGI,[52],2.45 µM and 5.76 µM
same,GI50,[53],0.422 µM and 0.848 µM
same,TGI,[53],1.77 µM and 3.57 µM
same,GI50,[54],0.808 µM and 2.64 µM
same,TGI,[54],2.61 µM and 15.2 µM
same,GI50,[55],0.344 µM and 0.657 µM
same,TGI,[55],13.5 µM and 19.1 µM
same,GI50,[56],1.11 µM and 0.934 µM
same,TGI,[56],> 27.6 µM and 15.4 µM
same,GI50,[57],0.261 µM and 0.39 µM
same,GI50,[58],1.52 µM and 4.41 µM
same,TGI,[58],4.69 µM and 18.2 µM
